Columns and labels:
[1] = test system: normal NK cells expanded with K562-aAPC; assay: percent inhibition of viability; higher = more inhibition; settings: 72 h, IL-2 2.5 ng/mL
Method: (§1)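 Drug sensitivity and resistance testing on K562-aAPC-expanded normal NK cells: 5 concentrations (10-fold steps over a 10,000-fold range), 72 h at 37 °C, viability by CellTiter-Glo normalised to DMSO and benzethonium chloride controls; DSS from the fitted curve.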

[2] = test system: DERL-7 (IL-2 2.5 ng/mL); assay: as above; settings: 72 h
[3] = test system: IMC-1 (IL-2 20 ng/mL); assay: as above; settings: 72 h
[4] = test system: KAI3 (IL-2 2.5 ng/mL); assay: as above; settings: 72 h
[5] = test system: KHYG-1 (IL-2 2.5 ng/mL); assay: as above; settings: 72 h
[6] = test system: NK-92 (IL-2 2.5 ng/mL); assay: as above; settings: 72 h
[7] = test system: NK-YS (IL-2 2.5 ng/mL); assay: as above; settings: 72 h
[8] = test system: NKL (IL-2 2.5 ng/mL); assay: as above; settings: 72 h
[9] = test system: SNK-6 (IL-2 2.5 ng/mL); assay: as above; settings: 72 h
[10] = test system: YT (IL-2 2.5 ng/mL); assay: as above; settings: 72 h
[11] = test system: normal primary NK cells, pool 1 (3 donors) (IL-2 2.5 ng/mL); assay: as above; settings: 72 h
[12] = test system: normal primary NK cells, pool 1 (3 donors), resting (IL-2 0 ng/mL); assay: as above; settings: 72 h
[13] = test system: normal primary NK cells, pool 2 (3 donors) (IL-2 2.5 ng/mL); assay: as above; settings: 72 h
[14] = test system: normal primary NK cells, pool 3 (3 donors) (IL-2 2.5 ng/mL); assay: as above; settings: 72 h
[15] = test system: normal NK cells expanded with K562-aAPC; assay: drug sensitivity score (DSS) (DSS units); higher = more sensitive; extreme values may be limits of the assay; settings: 72 h; IL-2 2.5 ng/mL
Method: as §1

[16] = test system: DERL-7 (IL-2 2.5 ng/mL); assay: as above; settings: 72 h
[17] = test system: IMC-1 (IL-2 20 ng/mL); assay: as above; settings: 72 h
[18] = test system: KAI3 (IL-2 2.5 ng/mL); assay: as above; settings: 72 h
[19] = test system: KHYG-1 (IL-2 2.5 ng/mL); assay: as above; settings: 72 h
[20] = test system: NK-92 (IL-2 2.5 ng/mL); assay: as above; settings: 72 h
[21] = test system: NK-YS (IL-2 2.5 ng/mL); assay: as above; settings: 72 h
[22] = test system: NKL (IL-2 2.5 ng/mL); assay: as above; settings: 72 h
[23] = test system: SNK-6 (IL-2 2.5 ng/mL); assay: as above; settings: 72 h
[24] = test system: YT (IL-2 2.5 ng/mL); assay: as above; settings: 72 h
[25] = test system: normal primary NK cells, pool 1 (3 donors) (IL-2 2.5 ng/mL); assay: as above; settings: 72 h
[26] = test system: normal primary NK cells, pool 1 (3 donors), resting (IL-2 0 ng/mL); assay: as above; settings: 72 h
[27] = test system: normal primary NK cells, pool 2 (3 donors) (IL-2 2.5 ng/mL); assay: as above; settings: 72 h
[28] = test system: normal primary NK cells, pool 3 (3 donors) (IL-2 2.5 ng/mL); assay: as above; settings: 72 h

CN(N=O)C(=O)N[C@@H](C=O)[C@@H](O)[C@H](O)[C@H](O)CO [Streptozocin] (max concentration tested 10000 nM)
percent inhibition of viability [%]
Settings	1 nM	10 nM	100 nM	1000 nM	10000 nM
[1]	-0.04	4.41	2.61	7.51	13.9
[2]	-4.65	-4.39	-0.36	-4.36	-9.4
[3]	-3	-1.77	1.49	5.01	21.2
[4]	-8.8	-7.24	-7.83	-15.1	-3.23
[5]	-0.99	-4.93	2.57	-0.52	4.73
[6]	-10.2	-0.49	-2.54	-2.99	-3.48
[7]	-3.08	-5.94	5.25	-5.62	10.8
[8]	-22.4	-14.9	-15.8	-16.6	-9.59
[9]	4.98	18.1	36.6	23.4	36.7
[10]	-1.12	-3.14	1.58	-0.51	9.38
[11]	-0.38	-7.4	-2.69	-9.47	-1.13
[12]	-9.25	-22.8	-15.8	-38.7	-21.4
[13]	-14.4	-2.41	1.68	-6.8	-12.2
[14]	-12.8	-5.88	-5.23	-3.37	-3

Settings	drug sensitivity score
[15]	0.16
[16]	0
[17]	1.35
[18]	0
[19]	0
[20]	0
[21]	0
[22]	0
[23]	12.4
[24]	0
[25]	0
[26]	0
[27]	0
[28]	0

C=CCn1c(=O)c2cnc(Nc3ccc(N4CCN(C)CC4)cc3)nc2n1-c1cccc(C(C)(C)O)n1 [MK1775] (max concentration tested 10000 nM)
percent inhibition of viability [%]
Settings	1 nM	10 nM	100 nM	1000 nM	10000 nM
[1]	-4.38	-1.43	28.4	50.9	65.7
[2]	0.66	0.03	17.1	97.5	92.2
[3]	-5.81	-5.29	-4.21	96.3	99
[4]	-0.83	7.57	45.7	91.1	90.4
[5]	-2.16	1.16	78.7	102	98.7
[6]	4.45	-1.85	53.5	98.9	97.4
[7]	-5.73	-7.13	10.9	92.7	94.9
[8]	-16	4.83	68.4	94.3	64.4
[9]	-5.66	-15.9	26.5	92.5	96.4
[10]	1.53	1.29	16.2	98.3	98.1
[11]	-14.7	-12.2	-5.81	9.3	42.5
[12]	-1.92	-3.22	7.91	4.91	-27.9
[13]	-15.1	-7.74	-2.34	4.19	34.3
[14]	-17.6	-4.31	-8.03	5.21	17.9

Settings	drug sensitivity score
[15]	13
[16]	20.4
[17]	17.1
[18]	21.8
[19]	27.1
[20]	24.3
[21]	18.8
[22]	25.5
[23]	21
[24]	20.4
[25]	3.64
[26]	0
[27]	2.29
[28]	1.01
